Measured values taken from BindingDB's records for PubMed 17827 (1977).
Values joined by “and” are separate entries in the source; they are usually repeats but may differ in a detail not shown here. Identical values can stand only once.

Biological target: T1, Alpha-1A adrenergic receptor (Rattus norvegicus, UniProt P43140)
T1 sequence (P43140 whole entry): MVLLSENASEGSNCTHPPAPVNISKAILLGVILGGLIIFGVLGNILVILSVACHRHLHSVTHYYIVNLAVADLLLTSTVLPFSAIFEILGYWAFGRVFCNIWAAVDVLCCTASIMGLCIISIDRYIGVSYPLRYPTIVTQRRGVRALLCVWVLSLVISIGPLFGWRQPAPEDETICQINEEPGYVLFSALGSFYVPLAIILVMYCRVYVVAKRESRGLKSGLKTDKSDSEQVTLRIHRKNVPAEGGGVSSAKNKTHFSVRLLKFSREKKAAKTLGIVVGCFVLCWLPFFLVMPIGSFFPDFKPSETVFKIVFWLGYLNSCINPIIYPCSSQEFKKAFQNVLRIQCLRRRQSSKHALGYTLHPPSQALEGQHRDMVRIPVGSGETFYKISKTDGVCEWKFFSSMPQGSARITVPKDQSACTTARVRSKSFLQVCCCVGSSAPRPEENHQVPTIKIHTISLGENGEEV

Question: For `NCCc1ccc(O)cc1`, which Ki is on record?
Answer: The Ki was 5900 nM and 23000 nM.

Question: How did the Ki turn out when `CC(C)NC[C@@H](O)c1ccc(O)c(O)c1` was run?
Answer: Its Ki is 38000 nM and > 70000 nM.

Question: Which Ki does the source give for `CN(C)CCC=C1c2ccccc2CCc2ccccc21` here?
Answer: Its Ki is 530 nM.

Question: With `CC[C@@H](CO)NC(=O)[C@@H]1C=C2c3cccc4c3c(cn4C)C[C@H]2N(C)C1` as the compound, how does the Ki read?
Answer: Its Ki is 4700 nM and 1900 nM.

Question: With `CN1C2CCC1CC(OC(c1ccccc1)c1ccccc1)C2` (stereo unspecified) as the compound, how does the Ki read?
Answer: Its Ki is 420 nM and 47 nM.

Question: Which Ki does the source give for `NCC(O)c1ccc(O)cc1` (racemic) [Octopamine,(+/-)] here?
Answer: The Ki was 1560 nM and 11000 nM.

Question: Which Ki does the source give for `CNC(=S)NCCCCc1cnc[nH]1` [1-[4-(1H-imidazol-5-yl)butyl]-3-methylthiourea] here?
Answer: Its Ki is 1030 nM and 1900 nM.

Question: Which Ki does the source give for `CN1CC(C(=O)N[C@]2(C)O[C@@]3(O)C4CCCN4C(=O)[C@H](Cc4ccccc4)N3C2=O)CC2c3cccc4[nH]cc(c34)CC21` (stereo partly drawn) [7-Methyl-4,6,6a,7,8,9,10,10a-octahydro-indolo[4,3-fg]quinoline-9-carboxylic acid ((2R,5S,10bS)-5-benzyl-10b-hydroxy-2-methyl-3,6-dioxo-octahydro-oxazolo[3,2-a]pyrrolo[2,1-c]pyrazin-2-yl)-amide] here?
Answer: Its Ki is 2.4 nM and 3.5 nM.

Question: `CN1C[C@H](C(=O)N[C@]2(C)O[C@@]3(O)[C@@H]4CCCN4C(=O)[C@H](Cc4ccccc4)N3C2=O)C=C2c3cccc4[nH]cc(c34)C[C@H]21` [12'-hydroxy-2'-methyl-5'alpha-(phenylmethyl)ergotaman-3',6',18-trione] was tested. Which Ki did it give?
Answer: The Ki was 12 nM.

Question: `N[C@H]1C[C@@H]1c1ccccc1` [(1S,2R)-(+)-2-phenylcyclopropylamine] was tested. Which Ki did it give?
Answer: Its Ki is 940 nM and 7000 nM.

Question: How did the Ki turn out when `CCN(CC)C(=O)[C@@H]1C=C2c3cccc4[nH]cc(c34)C[C@H]2N(C)C1` [(4R,7R)-N,N-diethyl-6-methyl-6,11-diazatetracyclo[7.6.1.0^{2,7}.0^{12,16}]hexadeca-1(16),2,9,12,14-pentaene-4-carboxamide] was run?
Answer: The Ki was 220 nM.

Question: Which Ki does the source give for `CC(C)C[C@H]1C(=O)N2CCCC2[C@]2(O)O[C@](NC(=O)[C@@H]3C=C4c5cccc6[nH]cc(c56)CC4N(C)C3)(C(C)C)C(=O)N12` (stereo partly drawn) [ALPHA-ERGOCRYPTINE] here?
Answer: The Ki was 8 nM and 9 nM.

Question: Which Ki does the source give for `CN1CCc2cccc3c2[C@H]1Cc1ccc(O)c(O)c1-3` [APOKYN] here?
Answer: Its Ki is 950 nM and 2300 nM.

Question: Which Ki does the source give for `CC(C)C[C@H]1C(=O)N2CCC[C@H]2[C@]2(O)O[C@](NC(=O)[C@@H]3C=C4c5cccc6[nH]c(Br)c(c56)C[C@H]4N(C)C3)(C(C)C)C(=O)N12` [Bromocriptine+ (GTP+)] here?
Answer: Its Ki is 9 nM and 16 nM.

Question: For `COc1cc2c3cc1Oc1cc(ccc1O)C[C@H]1c4c(cc(OC)c(O)c4Oc4ccc(cc4)C[C@@H]3N(C)CC2)CC[N+]1(C)C` [CAS_57-94-3], which Ki is on record?
Answer: Its Ki is > 60000 nM and 6900 nM.

Question: With `CC(CO)NC(=O)C1C=C2c3cccc4[nH]cc(c34)CC2N(C)C1` (stereo unspecified) [CAS_60-79-7] as the compound, how does the Ki read?
Answer: Its Ki is 1400 nM and 1800 nM.

Question: For `C[C@@H](N)Cc1ccc(O)cc1` [CAS_103-86-6], which Ki is on record?
Answer: Its Ki is 5000 nM and 39000 nM.

Question: `c1ccc2c(c1)OCC(CN1CCN(CC3COc4ccccc4O3)CC1)O2` (stereo unspecified) [CAS_7762-32-5] was tested. Which Ki did it give?
Answer: Its Ki is 100 nM and 19 nM.

Question: How did the Ki turn out when `CC(C)C1(NC(=O)C2CC3c4cccc5[nH]cc(c45)CC3N(C)C2)OC2(O)C3CCCN3C(=O)C(Cc3ccccc3)N2C1=O` (stereo unspecified) [Dihydroergocristine] was run?
Answer: The Ki was 10 nM and 2.4 nM.

Question: Which Ki does the source give for `CC(C)[C@H]1C(=O)N2CCC[C@H]2[C@]2(O)O[C@](NC(=O)[C@@H]3C=C4c5cccc6[nH]cc(c56)C[C@H]4N(C)C3)(C(C)C)C(=O)N12` [ERGOCORNINE] here?
Answer: The Ki was 11 nM and 10 nM.

Question: With `C#CCN(C)Cc1ccccc1` [N-benzyl-N-methylprop-2-yn-1-amine] as the compound, how does the Ki read?
Answer: The Ki was 14000 nM and > 70000 nM.

Question: Which Ki does the source give for `NNc1nncc2ccccc12` [NSC_3637] here?
Answer: The Ki was 7700 nM and 52000 nM.

Question: How did the Ki turn out when `N=c1nc(N2CCCCC2)cc(N)n1O` [NSC_4201] was run?
Answer: Its Ki is > 60000 nM and 29000 nM.

Question: How did the Ki turn out when `OC(CCN1CCCCC1)(c1ccccc1)C1CCCCC1` (stereo unspecified) [NSC_5572] was run?
Answer: Its Ki is 5000 nM and 18000 nM.

Question: How did the Ki turn out when `ClCCN(Cc1ccccc1)Cc1ccccc1` [NSC_5820] was run?
Answer: The Ki was 270 nM and 83 nM.

Question: With `CC(C)C[C@H]1C(=O)N2CCC[C@H]2[C@]2(O)O[C@](NC(=O)[C@@H]3C[C@@H]4c5cccc6[nH]cc(c56)C[C@H]4N(C)C3)(C(C)C)C(=O)N12` [NSC_159729] as the compound, how does the Ki read?
Answer: Its Ki is 7 nM and 2.4 nM.

Question: For `CC(C)C1C(=O)N2CCCC2C2(O)OC(NC(=O)C3CC4c5cccc6[nH]cc(c56)CC4N(C)C3)(C(C)C)C(=O)N12` (stereo unspecified) [NSC_168871], which Ki is on record?
Answer: Its Ki is 9 nM and 3.7 nM.

Question: For `CC(C)[C@@]1(NC(=O)[C@@H]2C=C3c4cccc5[nH]cc(c45)C[C@H]3N(C)C2)O[C@@]2(O)[C@@H]3CCCN3C(=O)[C@H](Cc3ccccc3)N2C1=O` [SMR000058447], which Ki is on record?
Answer: Its Ki is 18 nM and 6.3 nM.

Question: For `CCCCCC(C)N` (stereo unspecified) [Tuaminoheptane], which Ki is on record?
Answer: Its Ki is 7100 nM and 68000 nM.

Question: With `NCCc1c[nH]c2ccc(O)cc12` [[3H]-5-HT] as the compound, how does the Ki read?
Answer: The Ki was 18000 nM and 23000 nM.

Question: How did the Ki turn out when `C[C@H](N)Cc1ccccc1` [beta-aminopropylbenzene] was run?
Answer: The Ki was 1600 nM and 10000 nM and 2200 nM and 12000 nM.
